Measured values as given in PubChem BioAssay AID330 (DTP/NCI, 2004).
Values joined by “and” are separate entries in the source; they are usually repeats but may differ in a detail not shown here. Identical values can stand only once. Toxic doses and inconclusive results are not listed.

Tested on: P388 leukemia ip, CD2F1 mice, survival T/C
Assay: NCI In Vivo Anticancer Drug Screen. Data for tumor model P388 Leukemia (intraperitoneal) in CD2F1 (CDF1) mice
Conditions: endpoint: median survival time, higher = longer survival
Outline: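 Mice carrying the transplanted tumor received test compound or vehicle. Survival was recorded in each group, and the value is the treated-group measurement divided by that of the vehicle-treated control group.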

[1] = dose: 50.0 mg/kg/injection, schedule: Q01DX005 (ip), vehicle: Klucel (hydroxypropylcellulose) (HPC)
[2] = dose: 100.0 mg/kg/injection, schedule: Q01DX005 (ip), vehicle: Klucel (hydroxypropylcellulose) (HPC)
[3] = dose: 200.0 mg/kg/injection, schedule: Q01DX005 (ip), vehicle: Klucel (hydroxypropylcellulose) (HPC)
[4] = dose: 25.0 mg/kg/injection, schedule: Q01DX009 (ip), vehicle: saline with Tween-80
[5] = dose: 50.0 mg/kg/injection, schedule: Q01DX009 (ip), vehicle: saline with Tween-80
[6] = dose: 100.0 mg/kg/injection, schedule: Q01DX009 (ip), vehicle: saline with Tween-80
[7] = dose: 50.0 mg/kg/injection, schedule: Q01DX005 (ip), vehicle: saline with Tween-80
[8] = dose: 100.0 mg/kg/injection, schedule: Q01DX005 (ip), vehicle: saline with Tween-80
[9] = dose: 200.0 mg/kg/injection, schedule: Q01DX005 (ip), vehicle: saline with Tween-80
[10] = dose: 200.0 mg/kg/injection, schedule: Q01DX009 (ip), vehicle: saline with Tween-80
[11] = dose: 12.5 mg/kg/injection, schedule: Q01DX009 (ip), vehicle: saline with Tween-80
[12] = dose: 100.0 mg/kg/injection, schedule: Q04DX002 (ip), vehicle: saline
[13] = dose: 200.0 mg/kg/injection, schedule: Q04DX002 (ip), vehicle: saline
[14] = dose: 400.0 mg/kg/injection, schedule: Q04DX002 (ip), vehicle: saline
[15] = dose: 100.0 mg/kg/injection, schedule: Q01DX001 (ip), vehicle: saline with Tween-80
[16] = dose: 200.0 mg/kg/injection, schedule: Q01DX001 (ip), vehicle: saline with Tween-80
[17] = dose: 400.0 mg/kg/injection, schedule: Q01DX001 (ip), vehicle: saline with Tween-80
[18] = dose: 60.0 mg/kg/injection, schedule: Q01DX005 (ip), vehicle: saline with Tween-80
[19] = dose: 120.0 mg/kg/injection, schedule: Q01DX005 (ip), vehicle: saline with Tween-80
[20] = dose: 240.0 mg/kg/injection, schedule: Q01DX005 (ip), vehicle: saline with Tween-80

For `C=C(C)c1nc(N)nc(-c2cccc(-c3nc(N)nc(C(=C)C)n3)c2)n1`, the T/C [1] was 95 % of control, the T/C [2] was 99 % of control and the T/C [3] was 100 % of control.
`CCCN(CCC)CCCC#N` was tested, and the T/C [4] was 90 % of control, the T/C [5] was 90 % of control and the T/C [6] was 100 % of control.
In the case of `CC1=NN(c2cc(S(=O)(=O)O)ccc2Cl)C(=O)C1N=Nc1ccccc1` (stereo not drawn), the T/C (dose: 50.0 mg/kg/injection, schedule: Q01DX009 (ip), vehicle: saline) is reported as 105 % of control and the T/C (dose: 100.0 mg/kg/injection, schedule: Q01DX009 (ip), vehicle: saline) is reported as 89 % of control.
In the case of `CC(=O)N1c2ccccc2Oc2ccc3ccccc3c21`, the T/C [7] is reported as 104 % of control, the T/C [8] is reported as 100 % of control and the T/C [9] is reported as 97 % of control.
`Clc1c2ccccc2[se][n+]1-c1ccccc1` was tested, and the T/C (dose: 12.5 mg/kg/injection, schedule: Q01DX009 (ip), vehicle: Klucel (hydroxypropylcellulose) (HPC)) was 109 % of control, the T/C (dose: 25.0 mg/kg/injection, schedule: Q01DX009 (ip), vehicle: Klucel (hydroxypropylcellulose) (HPC)) was 111 % of control and the T/C (dose: 50.0 mg/kg/injection, schedule: Q01DX009 (ip), vehicle: Klucel (hydroxypropylcellulose) (HPC)) was 115 % of control.
In the case of `S=C1N(c2ccccc2)CCN1c1ccccc1`, the T/C (dose: 60.0 mg/kg/injection, schedule: Q01DX005 (ip), vehicle: Klucel (hydroxypropylcellulose) (HPC)) is reported as 101 % of control, the T/C (dose: 120.0 mg/kg/injection, schedule: Q01DX005 (ip), vehicle: Klucel (hydroxypropylcellulose) (HPC)) is reported as 100 % of control and the T/C (dose: 240.0 mg/kg/injection, schedule: Q01DX005 (ip), vehicle: Klucel (hydroxypropylcellulose) (HPC)) is reported as 94 % of control.
With `S=c1sc2ccccc2n1CCNc1ccccc1` the T/C [6] was 90 % of control, the T/C (dose: 100.0 mg/kg/injection, schedule: Q04DX003 (ip), vehicle: saline with Tween-80) was 90 % of control and the T/C [10] was 90 % of control. The T/C (dose: 200.0 mg/kg/injection, schedule: Q04DX003 (ip), vehicle: saline with Tween-80) was 95 % of control, the T/C (dose: 400.0 mg/kg/injection, schedule: Q01DX009 (ip), vehicle: saline with Tween-80) was 86 % of control and the T/C (dose: 400.0 mg/kg/injection, schedule: Q04DX003 (ip), vehicle: saline with Tween-80) was 104 % of control.
With `NC(=O)CCNC(=O)OCc1ccccc1` the T/C (dose: 12.5 mg/kg/injection, schedule: Q01DX009 (ip), vehicle: distilled water + Tween-80) was 105 % of control, the T/C (dose: 25.0 mg/kg/injection, schedule: Q01DX009 (ip), vehicle: distilled water + Tween-80) was 103 % of control and the T/C (dose: 50.0 mg/kg/injection, schedule: Q01DX009 (ip), vehicle: distilled water + Tween-80) was 103 % of control. For the same compound, the T/C (dose: 100.0 mg/kg/injection, schedule: Q01DX009 (ip), vehicle: distilled water + Tween-80) was 104 % of control and the T/C (dose: 200.0 mg/kg/injection, schedule: Q01DX009 (ip), vehicle: distilled water + Tween-80) was 100 % of control.
For `N=C(N)Sc1cc(O)c(O)c2ccccc12`, the T/C (dose: 6.25 mg/kg/injection, schedule: Q01DX005 (ip), vehicle: saline) was 104 % of control and the T/C (dose: 12.5 mg/kg/injection, schedule: Q01DX005 (ip), vehicle: saline) was 109 % of control.
With `COC(=O)/C(C)=C\n1ccccc1=O` the T/C (dose: 60.0 mg/kg/injection, schedule: Q01DX005 (ip), vehicle: saline) was 97 % of control, the T/C (dose: 120.0 mg/kg/injection, schedule: Q01DX005 (ip), vehicle: saline) was 99 % of control and the T/C (dose: 240.0 mg/kg/injection, schedule: Q01DX005 (ip), vehicle: saline) was 98 % of control.
For `C=C(C)c1cc2cc(C(C)=O)ccc2o1`, the T/C (dose: 2.25 mg/kg/injection, schedule: Q01DX009 (ip), vehicle: Klucel (hydroxypropylcellulose) (HPC)) was 108 % of control, the T/C (dose: 4.5 mg/kg/injection, schedule: Q01DX009 (ip), vehicle: Klucel (hydroxypropylcellulose) (HPC)) was 115 % of control and the T/C (dose: 9.0 mg/kg/injection, schedule: Q01DX009 (ip), vehicle: Klucel (hydroxypropylcellulose) (HPC)) was 97 % of control. The T/C (dose: 18.0 mg/kg/injection, schedule: Q01DX009 (ip), vehicle: Klucel (hydroxypropylcellulose) (HPC)) was 115 % of control and the T/C (dose: 36.0 mg/kg/injection, schedule: Q01DX009 (ip), vehicle: Klucel (hydroxypropylcellulose) (HPC)) was 113 % of control.
With `CC(C)NC(=O)C(C)O` (stereo not drawn) the T/C (dose: 50.0 mg/kg/injection, schedule: Q01DX005 (ip), vehicle: saline) was 101 % of control, the T/C (dose: 100.0 mg/kg/injection, schedule: Q01DX005 (ip), vehicle: saline) was 101 % of control and the T/C (dose: 200.0 mg/kg/injection, schedule: Q01DX005 (ip), vehicle: saline) was 101 % of control.
In the case of `OC(c1cc(-c2ccc(C(F)(F)F)cc2)nc(-c2ccc(C(F)(F)F)cc2)c1)C1CCCCN1` (stereo not drawn), the T/C (dose: 6.25 mg/kg/injection, schedule: Q01DX009 (ip), vehicle: saline with Tween-80) is reported as 109 % of control, the T/C [11] is reported as 107 % of control and the T/C [4] is reported as 89 % of control.
With `Fc1ccc(N2C(c3ccccc3)=N[C@@H](N3CCOCC3)[C@@H]2N2CCOCC2)cc1` the T/C [1] was 102 % of control, the T/C [2] was 100 % of control and the T/C [3] was 93 % of control.
In the case of `c1ccc2c(c1)Nc1ccc3ccccc3c1S2`, the T/C [4] is reported as 98 % of control, the T/C [5] is reported as 105 % of control and the T/C [6] is reported as 96 % of control. The T/C [10] was 108 % of control.
With `Cc1cc(N(CCCl)CCCl)ccc1C=Nc1ccccc1C(=O)O` the T/C [4] was 117 % of control, the T/C [5] was 115 % of control and the T/C [10] was 150 % of control.
For `CCCCCCC[n+]1cccc(S(=O)(=O)N2CCOCC2)c1`, the T/C [11] was 98 % of control, the T/C [4] was 98 % of control and the T/C [5] was 98 % of control.
In the case of `O=C1C(=Cc2cc(Cl)c(O)c(Cl)c2)C(=O)c2ccccc21`, the T/C [12] is reported as 97 % of control, the T/C [13] is reported as 86 % of control and the T/C [14] is reported as 88 % of control.
For `CCOC(=O)C1(O)CC(O)C(O)C(O)C1OC` (stereo not drawn), the T/C [15] was 94 % of control, the T/C [16] was 92 % of control and the T/C [17] was 94 % of control.
With `O=C(O)c1cc(Br)cc(Br)c1O.O=C(O)c1cc(Br)cc(Br)c1O.[Cu]` the T/C (dose: 15.0 mg/kg/injection, schedule: Q01DX005 (ip), vehicle: saline with Tween-80) was 92 % of control, the T/C (dose: 30.0 mg/kg/injection, schedule: Q01DX005 (ip), vehicle: saline with Tween-80) was 94 % of control and the T/C [18] was 101 % of control and 92 % of control.
`Cc1nsnc1CCO` was tested, and the T/C [12] was 102 % of control, the T/C [13] was 104 % of control and the T/C [14] was 99 % of control.
`Cn1c(=NCCc2ccccc2)oc2ccc(Cl)cc21` was tested, and the T/C [7] was 103 % of control, the T/C [8] was 100 % of control and the T/C [9] was 100 % of control.
In the case of `COC1/C=C/OC2(C)Oc3c(C)c(O)c4c(O)c(c(/C=N/N5C(C)CN(Cc6cccc(O)c6)CC5C)c(O)c4c3C2=O)NC(=O)/C(C)=C\C=C\C(C)C(O)C(C)C(O)C(C)C(OC(C)=O)C1C` (stereo not drawn), the T/C [5] is reported as 102 % of control, the T/C [6] is reported as 100 % of control and the T/C [10] is reported as 118 % of control.
With `Cc1ccccc1N=Nc1c(O)n(-c2ccc(Br)cc2)c(=S)n(-c2ccccc2)c1=O` the T/C [15] was 98 % of control, the T/C [16] was 98 % of control and the T/C [17] was 89 % of control.
`COc1ccc(C2COc3c(ccc(O)c3O)C2)cc1OC` (stereo not drawn) was tested, and the T/C [18] was 94 % of control, the T/C [19] was 94 % of control and the T/C [20] was 94 % of control.
`OC1c2cc(Cl)ccc2-c2c(N=Cc3ccc4c(c3)OCO4)cc(Cl)cc21` (stereo not drawn) was tested, and the T/C [18] was 91 % of control, the T/C [19] was 99 % of control and the T/C [20] was 98 % of control.
In the case of `O=C1Nc2ccccc2/C1=N/N1C(=O)c2ccccc2C1=O`, the T/C [1] is reported as 91 % of control, the T/C [2] is reported as 92 % of control and the T/C [3] is reported as 97 % of control.
With `Cc1ccc(C2(O)CC3CCC(C2)N3C)cc1` (stereo not drawn) the T/C (dose: 100.0 mg/kg/injection, schedule: Q01DX001 (ip), vehicle: Klucel (hydroxypropylcellulose) (HPC)) was 103 % of control, the T/C (dose: 200.0 mg/kg/injection, schedule: Q01DX001 (ip), vehicle: Klucel (hydroxypropylcellulose) (HPC)) was 110 % of control and the T/C (dose: 400.0 mg/kg/injection, schedule: Q01DX001 (ip), vehicle: Klucel (hydroxypropylcellulose) (HPC)) was 101 % of control.
In the case of `CC1(C)CC(OC(=O)c2c3ccccc3c3ccc4cccc5ccc2c3c54)CC(C)(C)N1O`, the T/C [5] is reported as 91 % of control, the T/C [6] is reported as 91 % of control and the T/C [10] is reported as 90 % of control.
